According to patent US8680275B2, “Fused heterocyclic compounds as orexin receptor modulators” (Janssen Pharmaceutica NV, priority 2009, dated 2014):
Where two headings read alike, the source gives them in different places.

Legend:
human orexin-2 receptor = human orexin-2 receptor (Homo sapiens (Human), UniProt O43614); experiment: Human orexin 2 receptor radioligand binding ([3H]-EMPA competition); conditions: HEK293 cells stably expressing human orexin-2 receptor; [3H]-EMPA 5 nM final; read-out: OR-2 Ki
In short: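 Competition binding on HEK293 cells stably expressing human orexin-2 receptor, using 5 nM final [3H]-EMPA in PBS, compounds 0.1 nM to 10 μM (DMSO ≤0.1%). 60 min at room temperature, then filtration and scintillation counting; nonspecific binding defined with 10 μM of a reference antagonist.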

human orexin 1 receptor = human orexin 1 receptor (Homo sapiens (Human), UniProt O43613); experiment: Human orexin 1 receptor radioligand binding ([3H]-SB674042 competition); conditions: read-out: OR-1 Ki
In short: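 CHO cells stably expressing human OX1R incubated 60 min at room temperature with [3H]-SB674042 and compounds (7 concentrations, 0.1 nM–10 μM; DMSO ≤0.1%) in PBS. Nonspecific binding defined with 10 μM of a reference urea antagonist; bound radioactivity measured by filtration and scintillation counting.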

[1] = CHO cells stably expressing human orexin 1 receptor, [3H]-SB674042 4 nM final

human orexin 1 receptor, sequence (O43613 whole entry): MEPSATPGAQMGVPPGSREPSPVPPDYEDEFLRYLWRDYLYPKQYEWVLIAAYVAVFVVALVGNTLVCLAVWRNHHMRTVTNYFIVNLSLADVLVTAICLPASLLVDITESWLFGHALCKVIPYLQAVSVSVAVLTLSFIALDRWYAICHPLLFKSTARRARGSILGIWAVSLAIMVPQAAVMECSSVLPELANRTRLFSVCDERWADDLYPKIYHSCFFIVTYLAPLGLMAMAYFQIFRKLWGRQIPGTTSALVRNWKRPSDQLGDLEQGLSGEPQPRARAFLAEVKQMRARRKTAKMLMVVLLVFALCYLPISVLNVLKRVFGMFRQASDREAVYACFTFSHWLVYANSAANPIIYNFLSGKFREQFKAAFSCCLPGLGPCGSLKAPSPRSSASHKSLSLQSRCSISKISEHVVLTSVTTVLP
human orexin-2 receptor, sequence (O43614 whole entry): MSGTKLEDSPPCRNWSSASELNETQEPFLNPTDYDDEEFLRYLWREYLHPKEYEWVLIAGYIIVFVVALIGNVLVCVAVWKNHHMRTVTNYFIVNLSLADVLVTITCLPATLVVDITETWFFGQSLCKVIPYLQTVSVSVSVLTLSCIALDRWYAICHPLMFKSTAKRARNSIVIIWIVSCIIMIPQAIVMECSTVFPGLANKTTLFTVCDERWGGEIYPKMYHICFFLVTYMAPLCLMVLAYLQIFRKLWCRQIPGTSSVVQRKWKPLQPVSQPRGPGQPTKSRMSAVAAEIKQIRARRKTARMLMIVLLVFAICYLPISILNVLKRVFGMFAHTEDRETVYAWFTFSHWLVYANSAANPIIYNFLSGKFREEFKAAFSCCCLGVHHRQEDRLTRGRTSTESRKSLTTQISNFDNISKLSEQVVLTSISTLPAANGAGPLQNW

| Compound | Ki (human orexin-2 receptor) [µM] | Ki (human orexin 1 receptor; [1]) [µM] | Ki (human orexin 1 receptor) [µM] |
| --- | --- | --- | --- |
| COc1ccnc(N2CC3CN(C(=O)c4ccccc4-c4cccs4)CC32)n1 (stereo not shown) [Example 62, 6-(4-Methoxypyrimidin-2-yl)-3-[(2-thiophen-2-ylphenyl)carbonyl]-3,6-diazabicyclo[3.2.0]heptane] | 0.123 | 5 | – |
| COc1ccnc(N2CC3CN(C(=O)c4ccccc4-c4ccccc4)CC32)n1 (stereo not shown) [Example 63, 3-(Biphenyl-2-ylcarbonyl)-6-(4-methoxypyrimidin-2-yl)-3,6-diazabicyclo[3.2.0]heptane] | 0.392 | 10 | – |
| CCOc1ccc2ccccc2c1C(=O)N1CC2CN(c3nc(OC)cc(OC)n3)C2C1 (stereo not shown) [Example 64, 6-(4,6-Dimethoxypyrimidin-2-yl)-3-[(2-ethoxynaphthalen-1-yl)carbonyl]-3,6-diazabicyclo[3.2.0]heptane] | 0.109 | 0.808 | – |
| Cc1ccc(-n2nccn2)c(C(=O)N2CC3CN(c4nc(C)cc(C)n4)C3C2)c1 (stereo not shown) [Example 68, 6-(4,6-Dimethylpyrimidin-2-yl)-3-{[5-methyl-2-(2H-1,2,3-triazol-2-yl)phenyl]carbonyl}-3,6-diazabicyclo[3.2.0]heptane] | 0.192 | 5 | – |
| Cc1ccc(-n2nccn2)c(C(=O)N2CC3CN(c4nccc(-c5ccccc5)n4)C3C2)c1 (stereo not shown) [Example 69] | 0.061 | 0.128 | – |
| O=C(c1cc(F)ccc1-n1nccn1)N1CC[C@H]2CN(c3cnnc(Cl)c3)[C@H]2C1 [Example 87, (1R,6S)-8-(6-Chloropyridazin-4-yl)-3-{[5-fluoro-2-(2H-1,2,3-triazol-2-yl)phenyl]carbonyl}-3,8-diazabicyclo[4.2.0]octane] | 1.4 | ≥ 10 | – |
| Cc1cc(C)nc(N2C[C@@H]3CCN(C(=O)c4ccc(C)nc4-n4ccnn4)C[C@@H]32)n1 [Example 88, (1R,6S)-8-(4,6-Dimethylpyrimidin-2-yl)-3-{[6-methyl-2-(1H-1,2,3-triazol-1-yl)pyridin-3-yl]carbonyl}-3,8-diazabicyclo[4.2.0]octane] | 0.234 | 8.2 | – |
| Cc1cc(N2C[C@@H]3CCN(C(=O)c4ccc(C)nc4-n4ccnn4)C[C@@H]32)nc(C(F)(F)F)n1 [Example 91, (1R,6S)-3-{[6-Methyl-2-(1H-1,2,3-triazol-1-yl)pyridin-3-yl]carbonyl}-8-[6-methyl-2-(trifluoromethyl)pyrimidin-4-yl]-3,8-diazabicyclo[4.2.0]octane] | 0.52 | 5.4 | – |
| Cc1ccc(C(=O)N2CC[C@H]3CN(c4nccc(C(F)(F)F)n4)[C@H]3C2)c(-n2ccnn2)n1 [Example 93, (1R,6S)-3-{[6-Methyl-2-(1H-1,2,3-triazol-1-yl)pyridin-3-yl]carbonyl}-8-[4-(trifluoromethyl)pyrimidin-2-yl]-3,8-diazabicyclo[4.2.0]octane] | 0.23 | 3.7 | – |
| O=C(c1c(F)cccc1-n1nccn1)N1CC[C@H]2CN(c3nccc(C(F)(F)F)n3)[C@H]2C1 [Example 95, (1R,6S)-3-{[2-Fluoro-6-(2H-1,2,3-triazol-2-yl)phenyl]carbonyl}-8-[4-(trifluoromethyl)pyrimidin-2-yl]-3,8-diazabicyclo[4.2.0]octane] | 0.023 | 0.625 | – |
| Cc1cnc(C)c(N2C[C@@H]3CCN(C(=O)c4ccccc4-n4nccn4)C[C@@H]32)n1 [Example 96, (1R,6S)-8-(3,6-Dimethylpyrazin-2-yl)-3-{[2-(2H-1,2,3-triazol-2-yl)phenyl]carbonyl}-3,8-diazabicyclo[4.2.0]octane] | 0.258 | 5.84 | – |
| Cc1cnc(N2C[C@@H]3CCN(C(=O)c4ccccc4-n4nccn4)C[C@@H]32)cn1 [Example 100, (1R,6S)-8-(5-Methylpyrazin-2-yl)-3-{[2-(2H-1,2,3-triazol-2-yl)phenyl]carbonyl}-3,8-diazabicyclo[4.2.0]octane] | 0.2 | 8.7 | – |
| Cc1cnc(N2C[C@@H]3CCN(C(=O)c4c(F)cccc4-n4nccn4)C[C@@H]32)cn1 [Example 101, (1R,6S)-3-{[2-Fluoro-6-(2H-1,2,3-triazol-2-yl)phenyl]carbonyl}-8-(5-methylpyrazin-2-yl)-3,8-diazabicyclo[4.2.0]octane] | 0.19 | 6.6 | – |
| Cc1cnc(N2C[C@@H]3CCN(C(=O)c4ccc(F)cc4-n4nccn4)C[C@@H]32)cn1 [Example 102, (1R,6S)-3-{[4-Fluoro-2-(2H-1,2,3-triazol-2-yl)phenyl]carbonyl}-8-(5-methylpyrazin-2-yl)-3,8-diazabicyclo[4.2.0]octane] | 0.42 | 10 | – |
| Cc1cnc(N2C[C@@H]3CCN(C(=O)c4cccc(F)c4-n4nccn4)C[C@@H]32)cn1 [Example 103, (1R,6S)-3-{[3-Fluoro-2-(2H-1,2,3-triazol-2-yl)phenyl]carbonyl}-8-(5-methylpyrazin-2-yl)-3,8-diazabicyclo[4.2.0]octane] | 0.36 | – | 10 |
| Cc1nccnc1N1C[C@@H]2CCN(C(=O)c3ccccc3-n3nccn3)C[C@@H]21 [Example 105, (1R,6S)-8-(3-Methylpyrazin-2-yl)-3-{[2-(2H-1,2,3-triazol-2-yl)phenyl]carbonyl}-3,8-diazabicyclo[4.2.0]octane] | 10 | 10 | – |
| Cc1nccnc1N1C[C@@H]2CCN(C(=O)c3c(F)cccc3-n3nccn3)C[C@@H]21 [Example 106, (1R,6S)-3-{[2-Fluoro-6-(2H-1,2,3-triazol-2-yl)phenyl]carbonyl}-8-(3-methylpyrazin-2-yl)-3,8-diazabicyclo[4.2.0]octane] | 10 | 10 | – |
| Cc1nccnc1N1C[C@@H]2CCN(C(=O)c3ccc(F)cc3-n3nccn3)C[C@@H]21 [Example 108, (1R,6S)-3-{[4-Fluoro-2-(2H-1,2,3-triazol-2-yl)phenyl]carbonyl}-8-(3-methylpyrazin-2-yl)-3,8-diazabicyclo[4.2.0]octane] | 10 | 10 | – |

Second part, led by results:

| Ki (human orexin-2 receptor) [µM] | Ki (human orexin 1 receptor; [1]) [µM] | Compound | Ki (human orexin 1 receptor) [µM] |
| --- | --- | --- | --- |
| 0.042 | 1.07 | CCOc1ccc2ccccc2c1C(=O)N1CC2CN(c3nc(C)cc(C)n3)C2C1 (stereo not shown) [Example 65, 6-(4,6-Dimethylpyrimidin-2-yl)-3-[(2-ethoxynaphthalen-1-yl)carbonyl]-3,6-diazabicyclo[3.2.0]heptane] | – |
| 0.163 | 9.65 | Cc1cc(C)nc(N2CC3CN(C(=O)c4ccccc4-n4nccn4)CC32)n1 (stereo not shown) [Example 66, 6-(4,6-Dimethylpyrimidin-2-yl)-3-{[2-(2H-1,2,3-triazol-2-yl)phenyl]carbonyl}-3,6-diazabicyclo[3.2.0]heptane] | – |
| 0.156 | 0.225 | O=C(c1ccccc1-n1nccn1)N1CC2CN(c3nccc(-c4ccccc4)n3)C2C1 (stereo not shown) [Example 67, 6-(4-Phenylpyrimidin-2-yl)-3-{[2-(2H-1,2,3-triazol-2-yl)phenyl]carbonyl}-3,6-diazabicyclo[3.2.0]heptane] | – |
| 0.22 | 10 | Cc1cc(C)nc(N2C[C@@H]3CCN(C(=O)c4cccnc4C(F)(F)F)C[C@@H]32)n1 [Example 89, (1R,6S)-8-(4,6-Dimethylpyrimidin-2-yl)-3-{[2-(trifluoromethyl)pyridin-3-yl]carbonyl}-3,8-diazabicyclo[4.2.0]octane] | – |
| 0.15 | ≥ 10 | COc1ccc(C(=O)N2CC[C@H]3CN(c4nc(C)cc(C)n4)[C@H]3C2)c(-n2nccn2)c1 [Example 90, (1R,6S)-8-(4,6-Dimethylpyrimidin-2-yl)-3-{[4-methoxy-2-(2H-1,2,3-triazol-2-yl)phenyl]carbonyl}-3,8-diazabicyclo[4.2.0]octane] | – |
| 0.084 | 0.22 | Cc1cc(N2C[C@@H]3CCN(C(=O)c4c(F)cccc4-c4ncccn4)C[C@@H]32)nc(C(F)(F)F)n1 [Example 92, (1R,6S)-3-[(2-Fluoro-6-pyrimidin-2-ylphenyl)carbonyl]-8-[6-methyl-2-(trifluoromethyl)pyrimidin-4-yl]-3,8-diazabicyclo[4.2.0]octane] | – |
| 0.37 | 10 | O=C(c1cc(F)ccc1-n1nccn1)N1CC[C@H]2CN(c3nccc(C(F)(F)F)n3)[C@H]2C1 [Example 94, (1R,6S)-3-{[5-Fluoro-2-(2H-1,2,3-triazol-2-yl)phenyl]carbonyl}-8-[4-(trifluoromethyl)pyrimidin-2-yl]-3,8-diazabicyclo[4.2.0]octane] | – |
| 1.29 | 5.02 | Cc1cnc(C)c(N2C[C@@H]3CCN(C(=O)c4cc(F)ccc4-n4nccn4)C[C@@H]32)n1 [Example 97, (1R,6S)-8-(3,6-Dimethylpyrazin-2-yl)-3-{[5-fluoro-2-(2H-1,2,3-triazol-2-yl)phenyl]carbonyl}-3,8-diazabicyclo[4.2.0]octane] | – |
| 0.274 | 4.92 | Cc1cnc(C)c(N2C[C@@H]3CCN(C(=O)c4c(F)cccc4-n4nccn4)C[C@@H]32)n1 [Example 98, (1R,6S)-8-(3,6-Dimethylpyrazin-2-yl)-3-{[2-fluoro-6-(2H-1,2,3-triazol-2-yl)phenyl]carbonyl}-3,8-diazabicyclo[4.2.0]octane] | – |
| 0.096 | 4.13 | Cc1cnc(C)c(N2C[C@@H]3CCN(C(=O)c4cccc(F)c4-n4nccn4)C[C@@H]32)n1 [Example 99, (1R,6S)-8-(3,6-Dimethylpyrazin-2-yl)-3-{[3-fluoro-2-(2H-1,2,3-triazol-2-yl)phenyl]carbonyl}-3,8-diazabicyclo[4.2.0]octane] | – |
| 0.342 | 3.54 | Cc1cnc(N2C[C@@H]3CCN(C(=O)c4cc(F)ccc4-n4nccn4)C[C@@H]32)cn1 [Example 104, (1R,6S)-3-{[5-Fluoro-2-(2H-1,2,3-triazol-2-yl)phenyl]carbonyl}-8-(5-methylpyrazin-2-yl)-3,8-diazabicyclo[4.2.0]octane] | – |
